These results are taken from patent US6410011B1, “Gene therapy for restenosis using an adenoviral vector” (priority 1994, dated 2002).

For series [1] the following is noted: patients treated for viral infection with a non-toxic dose; cited from earlier work.
In series [2] the test system is rabbit aorta VSMC. As to the kind of experiment: Cytotoxic activity of the Ad-RSV-TK/ganciclovir combination on smooth muscle cells in culture, by cell counting. In kind it is cell-based. The settings on record: ganciclovir alone or Ad-RSV-TK alone. How it is done:
The activity of the adenovirus containing the TK gene, prepared in Example 1, was checked on in vitro models of smooth muscle cells. To this end, smooth muscle cells isolated from rat and rabbit aorta were infected with the recombinant adenovirus Ad-RSV-tk and incubated in the presence of ganciclovir. The effect of the Ad-RSV-tk/ganciclovir combination on cell viability is then confirmed by the colorimetric test employing MTT, 3-(4,5-dimethylthiazol-2-yl)-2,5-diphenyl-tetrazolium bromide, according to the technique described by Mosman (J. Immunol. Meth. 65 (1983) 55), or more accurately by cell counting. Briefly, vascular smooth muscle cells (VSMC) are set up in culture by enzymatic digestion of NZW rabbit aorta according to a method adapted from Chamley et al. (Cell Tissue Res. 177: 503-522 1977). The cells are maintained in the presence of 20% of foetal calf serum and used for all the tests (see below) before the tenth passage. […]
In order to measure the cytotoxic activity of the Ad-RSV-TK/ganciclovir combination, rabbit aorta VSMC are incubated in the presence of the adenovirus diluted in culture medium (DMEM, 0.5% FCS). […] Four days after the addition of ganciclovir, the cells are counted (100% cell viability corresponding to cells not transduced with Ad-RSV-TK and not treated with ganciclovir).

For `Nc1nc(O)c2ncn(COC(CO)CO)c2n1` [ganciclovir], the plasma concentrations entry in series [1] is on record as “above 15 μM”. For the same compound, in series [2], the “cell death with a single agent” value was “neither simple treatment with ganciclovir nor transduction with Ad-RSV-TK per se is associated with cell death”.
